Molecular target: human DGAT2 (hDGAT2) (Homo sapiens (Human), UniProt Q96PD7)
Assay: DGAT2 Enzymatic Activity Assay
Type: biochemical
Conditions: hDGAT2 Sf-9 membrane prep; 13C18-triolein product by LC/MS/MS; 25 μM diolein, 5 μM 13C oleoyl-CoA
Experimental: Sf-9 insect cells were maintained in Grace's insect cell culture medium with 10% heated-inactivated fetal bovine serum, 1% Pluronic F-68 and 0.14 μg/ml Kanamycine sulfate at 27° C. in a shaker incubator. After infection with untagged baculovirus expressing human DGAT2 (hDGAT2) at multiplicity of infection (MOI) 3 for 48 hours, cells were harvested. Cell pellets were suspended in buffer containing 10 mM Tris-HCl pH 7.5, 1 mM EDTA, 250 mM sucrose and Complete Protease Inhibitor Cocktail (Sigma Aldrich), and sonicated on ice. Cell debris were removed by centrifugation at 2000×g for 15 minutes. Membrane fractions were isolated by ultracentrifugation (100,000×g), resuspended in the same buffer, and frozen (−80° C.) for later use. The protein concentration was determined with the Pierce™ BCA Protein Assay Kit (Thermo Fisher Scientific).
LC/MS/MS analyses were performed using Thermal Fisher's LX4-TSQ Vantage system. This system consists of an Agilent binary high-performance liquid chromatography (HPLC) pump and a TSQ Vantage triple quadrupole MS/MS instrument. For each sample, 2 μL samples from the top organic layer of in-plate liquid-liquid extraction were injected onto a Thermo Betabasic C4 column (2.1 mm×20 mm, 5 μm particle size). The samples were then eluted using the following conditions; mobile phase: Isopropanol: acetonitrile/10 mM ammonium formate=50/35/15 (v/v/v), flow rate: 0.8 mL/min, temperature: 25° C. Data was acquired in positive mode using a heated electrospray ionization (HESI) interface. […] The peak area was integrated by Xcalibur Quan software. The ratio between the ^13C18triolein generated in the reaction and spiked in internal standard ^13C21-triolein was used to generate percentage inhibition and IC50 values. Compound percentage inhibition was calculated by the following formula: Inhibition %=1−[(compound response−low control)/(high control−low control)]×100%.
DGAT2 activity was determined by measuring the amount of enzymatic product ^13C18-triolein (^13C-1,2,3-Tri(cis-9-octadecenoyl)glycerol) using the membrane prep mentioned above. The assay was carried out in ABgene 384-well assay plates in a final volume of 25 μL at rt.

Sequence of human DGAT2 (hDGAT2) (Q96PD7 whole entry): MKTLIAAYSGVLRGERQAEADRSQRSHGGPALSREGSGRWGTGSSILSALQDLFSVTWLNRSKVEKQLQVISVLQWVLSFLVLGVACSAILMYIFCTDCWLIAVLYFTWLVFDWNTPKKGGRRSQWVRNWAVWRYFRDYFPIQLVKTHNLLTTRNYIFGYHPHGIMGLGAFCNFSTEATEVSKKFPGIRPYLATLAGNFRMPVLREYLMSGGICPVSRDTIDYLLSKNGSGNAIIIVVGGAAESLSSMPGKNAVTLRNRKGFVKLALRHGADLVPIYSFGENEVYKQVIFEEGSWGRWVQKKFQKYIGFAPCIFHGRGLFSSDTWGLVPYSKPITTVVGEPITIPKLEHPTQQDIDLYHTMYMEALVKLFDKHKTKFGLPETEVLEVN

Row | Compound | IC50 [nM]
1 | C[C@]1(NC(=O)[C@H]2CCc3c(-c4ccccc4Cl)nn(-c4ccc(F)cc4)c3C2)CCS(=O)(=O)C1 (single isomer, unassigned) [Example 1a] | 3900
2 | CC(C(F)F)n1nc(-c2cc(OC(F)F)ccc2F)c2c1C[C@H](C(=O)NC1(C)CS(=O)(=O)C1)CC2 (single isomer, unassigned) [Example 48b] | 19.8
3 | CC(C)Oc1cc(-c2nn(C(C)C)c3c2CC[C@@H](C(=O)NC2(C)CCS(=O)(=O)CC2)C3)c(F)cn1 [Example 38, (R)-3-(5-fluoro-2-isopropoxypyridin-4-yl)-1-isopropyl-N-(4-methyl-1,1-dioxidotetrahydro-2H-thiopyran-4-yl)-4,5,6,7-tetrahydro-1H-indazole-6-carboxamide] | 74.3
4 | CC1(NC(=O)[C@@H]2CCc3c(-c4cc(OC(F)F)ccc4F)nn(C4CCCC4O)c3C2)CS(=O)(=O)C1 (single isomer, unassigned) [Example 114b] | 129
5 | CCC1(NC(=O)[C@@H]2CCc3c(-c4cccc(OC(F)F)c4)nn(C(C)C)c3C2)CS(=O)(=O)C1 [Example 69, (R)-3-(3-(difluoromethoxy)phenyl)-N-(3-ethyl-1,1-dioxidothietan-3-yl)-1-isopropyl-4,5,6,7-tetrahydro-1H-indazole-6-carboxamide] | 90
6 | COCC(C)(C)NC(=O)[C@@H]1CCc2c(-c3cccc(OC(F)F)c3)nn(C(C)C)c2C1 [Example 66, (R)-3-(3-(difluoromethoxy)phenyl)-1-isopropyl-N-(1-methoxy-2-methylpropan-2-yl)-4,5,6,7-tetrahydro-1H-indazole-6-carboxamide] | 1330
7 | [2H]C([2H])([2H])C([2H])(n1nc(-c2cc(OCC)ncc2F)c2c1C[C@H](C(=O)NC1(C)CCS(=O)(=O)CC1)CC2)C([2H])([2H])[2H] [Example 47, (R)-3-(2-ethoxy-5-fluoropyridin-4-yl)-N-(4-methyl-1,1-dioxidotetrahydro-2H-thiopyran-4-yl)-1-(propan-2-yl-d7)-4,5,6,7-tetrahydro-1H-indazole-6-carboxamide] | 65.9
8 | CC(C)n1nc(-c2cncc(OC(F)(F)C(F)F)c2)c2c1C[C@H](C(=O)N[C@@]1(C)CCS(=O)(=O)C1)CC2 [Example 105, (R)-1-isopropyl-N-((S)-3-methyl-1,1-dioxidotetrahydrothiophen-3-yl)-3-(5-(1,1,2,2-tetrafluoroethoxy)pyridin-3-yl)-4,5,6,7-tetrahydro-1H-indazole-6-carboxamide] | 118
9 | CC(n1nc(-c2cc(OCC(F)(F)F)ncc2F)c2c1C[C@H](C(=O)N[C@@]1(C)CCS(=O)(=O)C1)CC2)C(C)(C)O (single isomer, unassigned) [Example 112a] | 11.3
10 | CC(C)n1nc(-c2cccc(OC(F)F)c2)c2c1C[C@H](C(=O)NC1(C)CCS(=O)(=O)CC1)CC2 [Example 31, (R)-3-(3-(difluoromethoxy)phenyl)-1-isopropyl-N-(4-methyl-1,1-dioxidotetrahydro-2H-thiopyran-4-yl)-4,5,6,7-tetrahydro-1H-indazole-6-carboxamide] | 24.7
11 | CC(n1nc(-c2cc(OCC(F)(F)F)ncc2F)c2c1C[C@H](C(=O)NC1(C)CCS(=O)(=O)CC1)CC2)C(C)(C)O (single isomer, unassigned) [Example 107a] | 3.9
12 | CC(C)n1nc(-c2cc(OC(F)F)ccc2F)c2c1CC(C(=O)NC1(C)CS(=O)(=O)C1)CO2 (racemic) [Example 121, 3-(5-(difluoromethoxy)-2-fluorophenyl)-1-isopropyl-N-(3-methyl-1,1-dioxidothietan-3-yl)-1,5,6,7-tetrahydropyrano[3,2-c]pyrazole-6-carboxamide] | 21.5
13 | CC(C)n1nc(-c2cccc(OC(F)F)c2)c2c1CC(C(=O)NC1(C)CS(=O)(=O)C1)OC2 (single isomer, unassigned) [EX-134a, 3-(3-(difluoromethoxy)phenyl)-1-isopropyl-N-(3-methyl-1,1-dioxidothietan-3-yl)-1,4,6,7-tetrahydropyrano[4,3-c]pyrazole-6-carboxamide] | > 10000
14 | N#CC1(NC(=O)[C@@H]2CCc3c(-c4cncc(OC(F)F)c4)nn(-c4ccc(F)cn4)c3C2)CCOC1 (single isomer, unassigned) [Example 15b] | 236
15 | CC(C)n1nc(-c2cccc(OC(F)(F)F)c2)c2c1C[C@H](C(=O)NC1(C)CCS(=O)(=O)CC1)CC2 [Example 55, (R)-1-isopropyl-N-(4-methyl-1,1-dioxidotetrahydro-2H-thiopyran-4-yl)-3-(3-(trifluoromethoxy)phenyl)-4,5,6,7-tetrahydro-1H-indazole-6-carboxamide] | 86.6
16 | CC(C)n1nc(-c2cc(OC(F)F)ccc2F)c2c1CC(C(=O)N[C@@]1(C)CCS(=O)(=O)C1)CO2 (stereo partly drawn) [Example 122, 3-(5-(difluoromethoxy)-2-fluorophenyl)-1-isopropyl-N-((S)-3-methyl-1,1-dioxidotetrahydrothiophen-3-yl)-1,5,6,7-tetrahydropyrano[3,2-c]pyrazole-6-carboxamide] | 5.8
17 | CC(n1nc(-c2cccc(OC(F)F)c2)c2c1C[C@H](C(=O)NC1(C)CCS(=O)(=O)CC1)CC2)C(C)(C)O (single isomer, unassigned) [Example 111b] | 230
18 | C[C@]1(NC(=O)[C@@H]2CCc3c(-c4ccccc4Cl)nn(-c4ccc(F)cc4)c3C2)CCS(=O)(=O)C1 (single isomer, unassigned) [Example 1b] | 33.7
19 | CC1(NC(=O)[C@@H]2CCc3c(-c4cc(OC(F)F)ccc4F)nn(S(=O)(=O)C4CC4)c3C2)CS(=O)(=O)C1 [Example 116, (R)-1-(cyclopropylsulfonyl)-3-(5-(difluoromethoxy)-2-fluorophenyl)-N-(3-methyl-1,1-dioxidothietan-3-yl)-4,5,6,7-tetrahydro-1H-indazole-6-carboxamide] | 68.1
20 | CC(n1nc(-c2cc(OCC(F)(F)F)ncc2F)c2c1C[C@H](C(=O)NC1(C)CCS(=O)(=O)CC1)CC2)C(C)(C)O (single isomer, unassigned) [Example 107b] | 5.4
21 | CC(C)Oc1ccc(F)c(-c2nn(C(C)C)c3c2CC[C@@H](C(=O)NC2(C)CS(=O)(=O)C2)C3)c1 [Example 81, (R)-3-(2-fluoro-5-isopropoxyphenyl)-1-isopropyl-N-(3-methyl-1,1-dioxidothietan-3-yl)-4,5,6,7-tetrahydro-1H-indazole-6-carboxamide] | 24.5
22 | C[C@]1(NC(=O)[C@@H]2CCc3c(-c4cccc(OC(F)F)c4)nn(C(=O)C4CC4)c3C2)CCS(=O)(=O)C1 [Example 74, (R)-1-(cyclopropanecarbonyl)-3-(3-(difluoromethoxy)phenyl)-N-((S)-3-methyl-1,1-dioxidotetrahydrothiophen-3-yl)-4,5,6,7-tetrahydro-1H-indazole-6-carboxamide] | 2910
23 | CCNS(=O)(=O)c1cccc(-c2nn(C(C)C)c3c2CC[C@@H](C(=O)NC2(C)CS(=O)(=O)C2)C3)c1 [Example 99, (R)-3-(3-(N-ethylsulfamoyl)phenyl)-1-isopropyl-N-(3-methyl-1,1-dioxidothietan-3-yl)-4,5,6,7-tetrahydro-1H-indazole-6-carboxamide] | > 10000
24 | CCOc1cc(-c2nn(C(C)C(C)(C)O)c3c2CC[C@@H](C(=O)NC2(C)CCS(=O)(=O)CC2)C3)c(F)cn1 (single isomer, unassigned) [Example 109b] | 30.7
25 | CC(C)n1nc(-c2cc(OCC(F)(F)F)ncc2F)c2c1C[C@H](C(=O)NC1(C)CCS(=O)(=O)CC1)CC2 [Example 45, (R)-3-(5-fluoro-2-(2,2,2-trifluoroethoxy)pyridin-4-yl)-1-isopropyl-N-(4-methyl-1,1-dioxidotetrahydro-2H-thiopyran-4-yl)-4,5,6,7-tetrahydro-1H-indazole-6-carboxamide] | 18.4
26 | CC(C)n1nc(-c2cc(C3CC3)ccc2F)c2c1C[C@H](C(=O)NC1(C)CS(=O)(=O)C1)CC2 [Example 83, (R)-3-(5-cyclopropyl-2-fluorophenyl)-1-isopropyl-N-(3-methyl-1,1-dioxidothietan-3-yl)-4,5,6,7-tetrahydro-1H-indazole-6-carboxamide] | 46
27 | CC(C)n1nc(-c2cccc(OCC(F)(F)F)c2)c2c1C[C@H](C(=O)N[C@@]1(C)CCS(=O)(=O)C1)CC2 [Example 35, (R)-1-isopropyl-N-((S)-3-methyl-1,1-dioxidotetrahydrothiophen-3-yl)-3-(3-(2,2,2-trifluoroethoxy)phenyl)-4,5,6,7-tetrahydro-1H-indazole-6-carboxamide] | 35.2
28 | CC(C1CC1)n1nc(-c2cc(OC(F)F)ccc2F)c2c1C[C@H](C(=O)NC1(C)CS(=O)(=O)C1)CC2 (single isomer, unassigned) [Example 58a] | 23.4

From US20240140938A1, “PREPARATION OF TETRAHYDROINDAZOLE DERIVATIVES AS NOVEL DIACYLGLYCERIDE O-ACYLTRANSFERASE 2 INHIBITORS” (MERCK SHARP & DOHME LLC, priority 2020, published 2024)
